The structures appear in SMILES notation.

The record followed here is patent US10519134B2, “Pyrazole compounds and methods of making and using same” (Lundbeck La Jolla Research Center, Inc., priority 2015, dated 2019).

Test [1] has as its target T1, MAGL (Mus musculus, UniProt O35678).
T1 construct: Proteomes (mouse brain membrane fraction or cell lysates); from tissue; host or cells: mouse brain membrane fraction (or cell lysates)
T1 sequence (O35678 1-303): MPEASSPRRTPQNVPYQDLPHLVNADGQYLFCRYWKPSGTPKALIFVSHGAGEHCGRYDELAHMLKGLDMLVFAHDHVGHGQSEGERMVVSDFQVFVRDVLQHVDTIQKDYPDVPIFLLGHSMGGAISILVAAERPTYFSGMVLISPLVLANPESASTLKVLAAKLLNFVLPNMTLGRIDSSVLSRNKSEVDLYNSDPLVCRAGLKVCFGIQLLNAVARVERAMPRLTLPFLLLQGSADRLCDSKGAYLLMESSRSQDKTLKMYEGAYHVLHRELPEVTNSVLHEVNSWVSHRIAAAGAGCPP
Kind of test: In vitro competitive activity-based protein profiling (mouse), MAGL gel band. Type of test: biochemical. To be noted: for IC50: mouse; for inhibition at 1 µM: read-out: MAGL % inh. 1 μM. A digest of the protocol: (§1)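 Mouse brain membrane proteome or cell lysate (1.0 mg/mL total protein) was preincubated with varying inhibitor concentrations for 30 min at 37 °C, then labelled for 30 min at 37 °C with FP-Rh or HT-01 (50 μM stock in DMSO). Activity was read as fluorescent band intensity after SDS-PAGE.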

Another test addresses T2, FAAH (Mus musculus, UniProt O08914).
T2 construct: Proteomes (mouse brain membrane fraction or cell lysates); from tissue; host or cells: mouse brain membrane fraction (or cell lysates)
T2 sequence (O08914 1-579): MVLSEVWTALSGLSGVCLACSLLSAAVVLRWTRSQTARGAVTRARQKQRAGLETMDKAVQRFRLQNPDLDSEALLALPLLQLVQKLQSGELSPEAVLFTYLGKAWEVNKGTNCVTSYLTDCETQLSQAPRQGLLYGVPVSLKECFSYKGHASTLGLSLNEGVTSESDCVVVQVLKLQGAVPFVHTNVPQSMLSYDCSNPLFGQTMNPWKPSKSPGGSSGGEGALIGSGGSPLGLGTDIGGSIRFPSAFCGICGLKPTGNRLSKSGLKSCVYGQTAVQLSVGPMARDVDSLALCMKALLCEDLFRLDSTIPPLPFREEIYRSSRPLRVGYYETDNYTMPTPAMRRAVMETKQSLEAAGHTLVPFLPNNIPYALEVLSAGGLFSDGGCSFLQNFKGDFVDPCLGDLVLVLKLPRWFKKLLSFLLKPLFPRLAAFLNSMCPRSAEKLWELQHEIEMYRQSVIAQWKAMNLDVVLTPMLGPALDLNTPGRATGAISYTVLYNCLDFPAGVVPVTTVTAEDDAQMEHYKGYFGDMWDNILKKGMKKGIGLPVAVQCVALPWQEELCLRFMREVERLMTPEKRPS
Briefly: In vitro competitive activity-based protein profiling (mouse), FAAH gel band. In kind it is biochemical. The following applies: for IC50: mouse; for inhibition at 1 µM: read-out: FAAH % inh. 1 μM. A digest of the protocol:
as §1

Test [2] deals with T1, MAGL. Kind of test: Mouse brain proteomes from inhibitor treated mice (oral gavage, sacrificed 4 h after administration). Type of test: in vivo. To be noted: read-out: MAGL % inh. 5 mg/kg. Here is the method: Compounds are tested to assess their MAGL and other serine hydrolase activity using the following in vitro and in vivo assays.
Preparation of Mouse Brain Proteomes from Inhibitor Treated Mice.
Inhibitors were administered to wild-type C57Bl/6J by oral gavage in a vehicle of polyethylene glycol. Each animal was sacrificed 4 h following administration and brain proteomes were prepared and analyzed according to previously established methods (See Niphakis, M. J., et al. (2011) ACS Chem. Neurosci. and Long, J. Z., et al. Nat. Chem. Biol. 5:37-44)

Take `CC(=O)Nc1ccn(C(=O)N2CCN(Cc3ccc(C(F)(F)F)cc3N3CCCC3)CC2)n1` [Example 1, N-(1-(4-(2-(pyrrolidin-1-yl)-4-(trifluoromethyl)benzyl)piperazine-1-carbonyl)-1H-pyrazol-3-yl)acetamide]: at MAGL [1], the IC50 was at most 100 nM and the inhibition at 1 µM is at least 75%. Also, at FAAH, the IC50 is 1000 to 10000 nM and the inhibition at 1 µM was 0 to 25%. For the same compound, the inhibition at 5 mg/kg at MAGL [2] was at least 75%.
On to `CC(=O)Nc1ccn(C(=O)N2CCN(Cc3ccc(C(F)(F)F)cc3N3CCOCC3)CC2)n1` [Example 3, N-(1-(4-(2-morpholino-4-(trifluoromethyl)benzyl)piperazine-1-carbonyl)-1H-pyrazol-3-yl)acetamide], for which, at MAGL [1], the half-inhibitory concentration (IC50) was at most 100 nM and the inhibition at 1 µM is at least 75%. On FAAH, the IC50 lay within 1000 to 10000 nM and the inhibition at 1 µM was 0 to 25%. The inhibition at 5 mg/kg at MAGL [2] fell in the range of 50 to 75%.
Regarding `CC(=O)Nc1ccn(C(=O)N2CCN(Cc3ccc(C(F)(F)F)cc3N3CCC(F)CC3)CC2)n1` [Example 4, N-(1-(4-(2-(4-fluoropiperidin-1-yl)-4-(trifluoromethyl)benzyl)piperazine-1-carbonyl)-1H-pyrazol-3-yl)acetamide], at MAGL [1], the IC50 was at most 100 nM and the inhibition at 1 µM was at least 75%. Further, on FAAH, the IC50 is 1000 to 10000 nM and the inhibition at 1 µM lay within 0 to 25%. For the same compound, on MAGL [2], the inhibition at 5 mg/kg was at least 75%.
On to `CC(=O)Nc1ccn(C(=O)N2CCN(Cc3ccc(Cl)cc3N3CCCC3)CC2)n1` [Example 5, N-(1-(4-(4-chloro-2-(pyrrolidin-1-yl)benzyl)piperazine-1-carbonyl)-1H-pyrazol-3-yl)acetamide], for which, at MAGL [1], the concentration for half-maximal inhibition (IC50) was at most 100 nM and the inhibition at 1 µM is at least 75%. Moreover, at FAAH, the IC50 is 1000 to 10000 nM and the inhibition at 1 µM lay within 0 to 25%. Further, the inhibition at 5 mg/kg at MAGL [2] is at least 75%.
With `CC(=O)Nc1ccn(C(=O)N2CCN(Cc3ccc(Cl)cc3N3CCOCC3)CC2)n1` [Example 6, N-(1-(4-(4-chloro-2-morpholinobenzyl)piperazine-1-carbonyl)-1H-pyrazol-3-yl)acetamide], at MAGL [1], the IC50 was at most 100 nM and the inhibition at 1 µM was at least 75%. For the same compound, at FAAH, the IC50 fell in the range of 1000 to 10000 nM and the inhibition at 1 µM was 0 to 25%. Moreover, the inhibition at 5 mg/kg on MAGL [2] was in the range of 25 to 50%.
For the compound `CC(=O)Nc1ccn(C(=O)N2CCC3(CCCN3Cc3ccc(Cl)cc3N3CCC4(CCOCC4)C3)CC2)n1` [Example 9, N-(1-(1-(4-chloro-2-(8-oxa-2-azaspiro[4.5]decan-2-yl)benzyl)-1,8-diazaspiro[4.5]decane-8-carbonyl)-1H-pyrazol-3-yl)acetamide], the values for the IC50 at MAGL [1] and on FAAH were at most 100 nM and 1000 to 10000 nM, respectively. For the same compound, the inhibition at 1 µM was at least 75% at MAGL [1] and 0 to 25% at FAAH. Moreover, the inhibition at 5 mg/kg on MAGL [2] was 0 to 25%.
Take `CC(=O)Nc1ccn(C(=O)N2CCC3(CCCN3Cc3ccc(C(F)(F)F)cc3N3CCOCC3)CC2)n1` [Example 10, N-(1-(1-(2-morpholino-4-(trifluoromethyl)benzyl)-1,8-diazaspiro[4.5]decane-8-carbonyl)-1H-pyrazol-3-yl)acetamide]: on MAGL [1], the IC50 is at most 100 nM and the inhibition at 1 µM was at least 75%. For the same compound, at FAAH, the IC50 lay in the range of 1000 to 10000 nM and the inhibition at 1 µM was in the range of 0 to 25%. Besides, the inhibition at 5 mg/kg on MAGL [2] was 0 to 25%.
With `CC(=O)Nc1ccn(C(=O)N2CCC3(CCCN3Cc3ccc(C(F)(F)F)cc3N3CCC(F)CC3)CC2)n1` [Example 12, N-(1-(1-(2-(4-fluoropiperidin-1-yl)-4-(trifluoromethyl)benzyl)-1,8-diazaspiro[4.5]decane-8-carbonyl)-1H-pyrazol-3-yl)acetamide], the IC50 was at most 100 nM at MAGL [1] and 1000 to 10000 nM on FAAH. Also, the inhibition at 1 µM on MAGL [1] was at least 75%; on FAAH, 0 to 25%. Moreover, on MAGL [2], the inhibition at 5 mg/kg is 0 to 25%.
For the compound `CC(=O)Nc1ccn(C(=O)N2CCC3(CCCN3Cc3ccc(Cl)cc3N3CCCC3)CC2)n1` [Example 14, N-(1-(1-(4-chloro-2-(pyrrolidin-1-yl)benzyl)-1,8-diazaspiro[4.5]decane-8-carbonyl)-1H-pyrazol-3-yl)acetamide], at MAGL [1], the half-maximal inhibitory concentration (IC50) is at most 100 nM and the inhibition at 1 µM was at least 75%. Further, at FAAH, the IC50 lay in the range of 1000 to 10000 nM and the inhibition at 1 µM lay in the range of 0 to 25%. The inhibition at 5 mg/kg at MAGL [2] was in the range of 25 to 50%.
For `CC(=O)Nc1ccn(C(=O)N2CCC3(CCCN3Cc3ccc(Cl)cc3N3CCC(F)CC3)CC2)n1` [Example 18, N-(1-(1-(4-chloro-2-(4-fluoropiperidin-1-yl)benzyl)-1,8-diazaspiro[4.5]decane-8-carbonyl)-1H-pyrazol-3-yl)acetamide] the same measures were at most 100 nM, at least 75%, 1000 to 10000 nM, 0 to 25% and 0 to 25%.
For `CC(=O)Nc1ccn(C(=O)N2CCC3(CCCN3Cc3ccc(C(F)(F)F)cc3N3CC4CCC(C3)O4)CC2)n1` [Example 20, N-(1-(1-(2-(8-oxa-3-azabicyclo[3.2.1]octan-3-yl)-4-(trifluoromethyl)benzyl)-1,8-diazaspiro[4.5]decane-8-carbonyl)-1H-pyrazol-3-yl)acetamide], in that order: at most 100 nM, at least 75%, 1000 to 10000 nM, 0 to 25% and 0 to 25%.
For `CC(=O)Nc1ccn(C(=O)N2CCC3(CCCN3Cc3ccc(C(F)(F)F)cc3N3CCC4(CC3)CCN(S(C)(=O)=O)C4)CC2)n1` [Example 26, N-(1-(1-(2-(2-(methylsulfonyl)-2,8-diazaspiro[4.5]decan-8-yl)-4-(trifluoromethyl)benzyl)-1,8-diazaspiro[4.5]decane-8-carbonyl)-1H-pyrazol-3-yl)acetamide] the same measures were at most 100 nM, at least 75%, 1000 to 10000 nM, 0 to 25% and 0 to 25%.
Regarding `CC(=O)Nc1ccn(C(=O)N2CCC3(CCCN3Cc3ccc(C(F)(F)F)cc3N3CCC4(CCOCC4)C3)CC2)n1` [Example 28, N-(1-(1-(2-(8-oxa-2-azaspiro[4.5]decan-2-yl)-4-(trifluoromethyl)benzyl)-1,8-diazaspiro[4.5]decane-8-carbonyl)-1H-pyrazol-3-yl)acetamide], the 50% inhibitory concentration (IC50) at MAGL [1] is at most 100 nM; on FAAH, 1000 to 10000 nM. Moreover, the inhibition at 1 µM on MAGL [1] was at least 75%; at FAAH it was 0 to 25%. In addition, on MAGL [2], the inhibition at 5 mg/kg is 0 to 25%.
On to `CC(=O)Nc1ccn(C(=O)N2CCC3(CCCN3Cc3ccc(C(F)(F)F)cc3N3CCC(F)(F)CC3)CC2)n1` [Example 29, N-(1-(1-(2-(4,4-difluoropiperidin-1-yl)-4-(trifluoromethyl)benzyl)-1,8-diazaspiro[4.5]decane-8-carbonyl)-1H-pyrazol-3-yl)acetamide], for which, on MAGL [1], the IC50 is at most 100 nM and the inhibition at 1 µM is at least 75%. For the same compound, on FAAH, the IC50 fell in the range of 1000 to 10000 nM and the inhibition at 1 µM lay in the range of 25 to 50%. Further, the inhibition at 5 mg/kg at MAGL [2] fell in the range of 0 to 25%.
For `CCN1CCN(c2cc(C(F)(F)F)ccc2CN2CCCC23CCN(C(=O)n2ccc(NC(C)=O)n2)CC3)CC1` [Example 31, N-(1-(1-(2-(4-ethylpiperazin-1-yl)-4-(trifluoromethyl)benzyl)-1,8-diazaspiro[4.5]decane-8-carbonyl)-1H-pyrazol-3-yl)acetamide], in that order: 100 to 1000 nM, at least 75%, 1000 to 10000 nM, 0 to 25% and 25 to 50%.
For the compound `CC(=O)Nc1ccn(C(=O)N2CCC3(CCCN3Cc3ccc(C(F)(F)F)cc3N3CC4COCC4C3)CC2)n1` (centres unmarked) [Example 32, N-(1-(1-(2-(dihydro-1H-furo[3,4-c]pyrrol-5(3H,6H,6aH)-yl)-4-(trifluoromethyl)benzyl)-1,8-diazaspiro[4.5]decane-8-carbonyl)-1H-pyrazol-3-yl)acetamide], the IC50 on MAGL [1] is at most 100 nM; on FAAH it was 1000 to 10000 nM. Moreover, the figures for the inhibition at 1 µM at MAGL [1] and on FAAH were at least 75% and 0 to 25%, respectively. The inhibition at 5 mg/kg at MAGL [2] is 25 to 50%.
